Results from patent publication US6808873B2, “Screening assays using intramitochondrial calcium” (MitoKor, Inc., priority 2000, dated 2004).

How the values were obtained:
Ca^2+ uniporter [1] = target: T1, Ca^2+ uniporter (Homo sapiens, UniProt Q8NE86); assay: Ca^2+ uniporter assay, digitonin-permeabilized suspended HepG2 cells, Calcium-Green-5N on FLIPR, ICMA added between two Ca^2+ pulses; format: cell-based; conditions: 5 micrograms/milliliter oligomycin, 2 micromolar rotenone, 1 micromolar FCCP; for release of sequestered Ca^2+ from mitochondria after addition of the agent: added about 3 min after first 12 micromolar Ca^2+ pulse, thapsigargin present; for mitochondrial uptake of the second Ca^2+ pulse: second Ca^2+ pulse at about t=6 min, 1 micromolar RU360
T1 construct: The effects of several intracellular Ca^2+ modulating agents (ICMAs) on permeabilized HepG2 cells were examined; endogenous in cells; host or cells: HepG2 (ATCC HB-8065), digitonin-permeabilized, in suspension
T1 sequence (Q8NE86 51-351): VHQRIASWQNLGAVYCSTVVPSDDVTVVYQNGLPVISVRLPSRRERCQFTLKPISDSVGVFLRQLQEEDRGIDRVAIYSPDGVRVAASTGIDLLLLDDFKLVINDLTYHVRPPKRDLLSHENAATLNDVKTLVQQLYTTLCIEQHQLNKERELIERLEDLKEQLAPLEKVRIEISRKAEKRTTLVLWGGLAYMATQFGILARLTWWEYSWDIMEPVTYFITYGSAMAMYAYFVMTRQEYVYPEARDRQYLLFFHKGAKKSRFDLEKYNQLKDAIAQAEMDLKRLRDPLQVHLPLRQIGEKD
T1 sequence (Q9H4I9 48-107 partner limits assumed): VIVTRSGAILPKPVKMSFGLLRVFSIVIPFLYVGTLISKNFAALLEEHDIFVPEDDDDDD
Protocol: A master mix solution (MM Solution) was prepared by the addition of glutamate and malate to final concentrations of 5 millimolar each, MgCl2 to a final concentration of 1 millimolar, EGTA to a final concentrations of 0 to 8 micromolar, and Calcium-Green-5N to a final concentration of 0.1 to 1.0 micromolar, to a basic KCl-based respiratory media (“BReM”) that is described in Table 3. […] The hexapotassiun salt Calcium-Green-5N (Molecular Probes, Eugene, Oreg.) in the MM Solution is a fluorescent dye that has low binding affinity to Ca^2+.
Thapsigargin (Calbiochem, San Diego, Calif.), a Ca^2+ uptake inhibitor of the endoplasmic reticulum (ER), was added to the MM Solution to a final concentration of 1 micromolar to yield a solution designated “MM-T” (i.e., Master Mix with Thapsigargin).
The cell membrane permeabilizing agent digitonin (Sigma, St. Louis, Mo.) was added to MM-T to a final concentration of from about 0.007% to about 0.03% to yield a solution referred to as “MM-TD” (i.e., Master Mix with Thapsigargin and digitonin. CaCl2 was added to MM-T to provide a solution with a determined final concentration of Ca^2+ for the determination of intracellular Ca^2+ flux.
The effects of several intracellular Ca^2+ modulating agents (ICMAs) on permeabilized HepG2 cells were examined as follows. The mitochondrial respiratory inhibitors oligomycin (Calbiochem, San Diego, Calif.) and rotenone (Calbiochem) were added to MM-T to final concentrations of 50 micrograms/milliliter and 20 micromolar, respectively. The uncoupler FCCP was similarly added to MM-T to a 10× concentration (10 micromolar) to yield a stock solution of FCCP, MM-TF (i.e., Master Mix with Thapsigargin and FCCP). The ICMA Ru360, which blocks Ca^2+ uptake into the mitochondria by the calcium uniporter, was added to MM-T to a concentration of 100 micromolar to yield MM-T360 (i.e., Master Mix with Thapsigragin and Ru360). CaCl2 was added to MM-T to yield a 10× solution of CaCl2 (120 micromolar) in MM-T.
HepG2 cells were cultured in Eagle's minimal essential medium (MEM) with non-essential amino acids, sodium pyruvate and Earle's balanced salt solution (BSS), 90%; fetal bovine serum (FBS), 10%. Cells were centrifuged (500×g) and the growth media was aspirated from the pellet. The HepG2 cells were resuspended in MM-TD at a concentration of 1×10^7 cells/milliliter, and 100 microliters of the resuspended permeabilized cells were dispensed into wells of a 96-well Costar 3603 microplate. The plate was placed into a FLIPR™ prewarmed to 37° C. MM-T, 120 micromolar Ca^2+, was dispensed into the cell-containing wells at a volume of 11.1 microliters, yielding a final assay concentration of 12 micromolar Ca^2+. The addition of Ca^2+ at this stage of the assay is referred to as the first calcium pulse and the time at which Ca^2+ is added is designated t=0.
After about three minutes (i.e., at about t=3 min.), 12.3 microliters of one of the ICMA solutions were dispensed into wells containing permeabilized cells to yield final assay concentrations of 5 micrograms/milliliter oligomycin, 2 micromolar rotenone, 1 micromolar FCCP, 1 micromolar RU360, and MM-T (no ICMA).
Cells were exposed to a second calcium pulse by the addition of 13.7 microliters of MM-T, 120 micromolar Ca^2+, to the cells after an additional 3 minutes (i.e., at about t=6 min.).

Ca^2+ uniporter [2] = assay: Ca^2+ uniporter assay, adherent permeabilized MixCon cells, Calcium-Green-5N on FLIPR, with respiratory inhibitors; format: cell-based; conditions: 10 micromolar Ca^2+; for Ca^2+-5N fluorescence after the second Ca^2+ pulse, presence of succinate: oligomycin 5 micrograms/milliliter and rotenone 2 micromolar together (MM-GMS-TD-OR), 5 millimolar succinate; for Ca^2+-5N fluorescence after the second Ca^2+ pulse, presence of succinate / Ca^2+-5N fluorescence after the second Ca^2+ pulse, absence of succinate: FIG. 8; for signal corresponding to extramitochondrial calcium after each Ca^2+ pulse: oligomycin 5 micrograms/milliliter or rotenone 2 micromolar, three pulses, FIG. 7; for Ca^2+-5N fluorescence after the second Ca^2+ pulse, absence of succinate: oligomycin 5 micrograms/milliliter, rotenone 2 micromolar, glutamate/malate medium
Protocol: Mitochondrial inhibitors of oxidative phosphorylation, oligomycin and rotenone, were used to observe the effect of decreased membrane potential of mitochondria on cytosol Ca^2+ levels in the adherent cell line MixCon. The adherent MixCon cells in Dulbecco's modified Eagle's medium and 10% FBS growth media were dispensed into wells of a 96-well microtiter plate at a concentration of about 6×10^4 cells in 100 microliters per well 48 hours prior to assay. Just prior to their use the growth media was aspirated from the wells. Ninety (90) microliters of MM-TD with oligomycin (5 micrograms/milliliter) or rotenone (2 micromolar), or MM-TD without either inhibitor, were added to the cells. The plate was placed in a FLIPR™ system, and three doses of the 10× stock (100 micromolar) solution of calcium were dispensed into the different wells at approximately 2 minute intervals with increasing volumes (10, 11.1, and 12.3 microliters respectively), resulting in a constant concentration of 10 micomolar Ca^2+ throughout the course of the assay. Emissions at the 531 nm wavelength were monitored by a FLIPR™ as a measure of extramitochondrial Ca^2+-Green-5N fluorescence. The signal corresponding to extramitochondrial calcium increased after each pulse and, in samples when remained high when in the presence of the two inhibitors. Alternatively, Ca^2+ is sequestered in mitochondria of cells not exposed to inhibitors (FIG. 7).
Another assay was performed to examine the effect by the respiratory inhibitors oligomycin and rotenone and subsequent release of Ca^2+ from mitochondria in the presence or absence of succinate in MixCon cells. Two different master mixes (MM and MM-GMS) were prepared with MM prepared as previously described. MM-GMS was prepared by the addition of glutamate, malate and succinate to final concentrations of 5 millimolar each, MgCl2 to a final concentration of 1 millimolar, EGTA to a final concentration of 10 micromolar, and Calcium-Green-5N to a final concentration of 0.1 micromolar, to a basic KCl-based respiratory media (BReM, Table 3). Thapsigargin was added to the MM and MM-GMS to a final concentration of 1 micromolar to yield MM-T and MM-GMS-T (where “T” indicates Thapsigargin and “GMS” indicates glutamate, malate and succinate. The cell permeabilizing agent digitonin was added to MM-T and MM-GMS-T to a final concentration of 0.03% to yield solutions designated as MM-TD and MM-GMS-TD. As indicated in some instances, the mitochondrial inhibitors oligomycin and rotenone (Calbiochem) were each added to solutions of MM-TD and MM-GMS-TD to final concentrations of 5 micrograms/milliliter and 2 micromolar, respectively.
CaCl2 was added to MM-T and MM-GMS-T to a concentration of 50 micromolar Ca^2+ to yield 5× Ca^2+ solutions in MM-T and MM-GMS-T, respectively. Versions of the 5× Ca^2+ stock solutions comprising respiratory inhibitors were also prepared (oligomycin, final concentration of 50 micrograms/milliliter; rotenone, 20 micromolar).
The MixCon cells, in Dulbecco's modified Eagle's medium and 10% FBS growth media, were dispensed into wells of a 96-well Costar 3603 microtiter plate at a concentration of 6×10^4 cells in one hundred microliters per well, 48 hours prior to the assay. Just prior to their use the growth media was aspirated from the wells. Eighty (80) microliters of MM-TD, MM-GMS-TD, MM-TD-O, MM-TD-R, and MM-GMS-TD-OR (where “O” oligomycin and “R” signifies rotenone) were dispensed into wells containing the cells. The microtiter plate was placed in a FLIPR™ preheated to 37° C. and an initial injection of 20 microliters of the 5× stock solutions (50 micromolar) of Ca^2+, with olygomycin, rotenone or no additions, were dispensed into the appropriate wells such that the Ca^2+ concentration in the assay is 10 micromolar and wells with the inhibitors remain at constant assay concentrations.
A second pulse of 25 microliters of the 5× solution was supplied after approximately 5 minutes. […]

calcium uniporter (CaUP) = assay: Calcium uniporter (CaUP) functional assay, suspended permeabilized L6 cells, FLIPR; format: cell-based, rat; conditions: 5 microgram/milliliter oligomycin and 2 micromolar rotenone together, 16 micromolar Ca^2+; FIG. 9
Protocol: A series of functional assays were performed on non-adherent cell lines in order to optimize the mitochondria Ca—UP assay on FLIPR using Calcium-Green-5N and digitonin permeabilized cells. A dose response of Ca^2+ pulses with and without the addition of mitochondria oxidative respiration uncouplers were performed utilizing cells from […]. MM with thapsigarin, MM-T, and digitonin, MM-TD, are prepared as previously described. Ten times (10×) Ca^2+ media is prepared by adding CaCl2 (160 micromolar) to MM-T. The L6 cells were suspended in the cell permeabilizing respiratory media MM-TD at a concentration of 1×10^7 cells per milliliter. […] Emissions resulting from [Ca^2+:Calcium-Green-5N] complexes were monitored at the appropriate wavelength so as to follow changes in intracellular Ca^2+ levels throughout the assay.
Functional assays of the calcium uniporter (CaUP) were similarly performed on non-adherent L6 cells, as described above, with respiratory inhibitors oligomycin and rotenone in order to observe the effects of elimination of the membrane potential using this high throughput FLIPR. […] The emission wavelength was monitored and intracellular Ca^2+ levels observed throughout assay. […] When media with no Ca^2+ is added, the fluorescence changes only minimally (rows 3 and 4)] […]

Ca^2+ uniporter [3] = target: T1, Ca^2+ uniporter; assay: High-throughput uniporter assay of different compounds, permeabilized HepG2 cells with and without thapsigargin, FLIPR II; format: cell-based; conditions: test compounds 1 micromolar
Excerpt: The high-throughput uniporter assay protocol, carried out as described above for suspension cells, was used to determine the effect of different compounds on mitochondria and extramitochondrial Ca^2+ concentrations in the presence or absence of the Ca^2+ uptake inhibitor of the endoplasmic reticulum, thapsigargin (Calbiochem). Agents examined in this assay include calcium channel inhibitors, pro- and anti-oxidants, mitochondrial inhibitors and uncouplers, and the Ca—UP inhibitor Ru360. On the day of the assay, solutions of the respiratory/cell permeabilizing media containing digitonin with thapsigarin (MM-TD) and without thapsigarin (MM-D) were prepared as previously described. Calcium chloride was added to each to a final concentration of 6 micromolar Ca^2+, resulting in MM-TD, 6 uM Ca and MM-D, 6 uM Ca. A MM solution was prepared with a 10× Ca^2+ concentration of 200 micromolar for the second Ca^2+ pulse. The Ca^2+-uniporter inhibitor Ru360 was prepared at a 10× concentration of 100 microliters in MM. Ten times (10×) stock solutions of the other agents were prepared for the assay by the addition of the compounds to final concentrations of 10 micromolar into MM. […] Controls include water and 10% DMSO (Sigma) in MM.
Cells of the HepG2 cell line (hepatocellular carcinoma, ATCC HB-8065) were trypsinized from near-confluent flasks in growth media (Eagle's MEM with non-essential amino acids, sodium pyruvate and Earle's BSS, 90%; FBS 10%). Cells were centrifuged, growth media was aspirated, and cells were resuspended to a concentration of 1×10^7 cells per milliliter in MM-TD, 6 uM Ca, or MM-D, 6 uM Ca. One hundred (100) microliters of the cell suspension (about 1×10^6 cells) were delivered to wells of a microtiter plate. The plate was placed in a FLIPR™ II (used in 96-well format) warmed to 37° C. An 11.1 microliter aliquot of the 10× stock solutions with water or DMSO (controls), Ru360 (Ca—UP inhibitor), or the test compounds, were dispensed into designated wells such that the assay concentration of DMSO is 0.1%, Ru360 is 10 micromolar, and each of the test compounds are at 1 micromolar concentrations. After an additional three minutes, a second addition of 12.3 microliters of the 10× CaCl2 (200 micromolar Ca^2+), was dispensed into the wells of the microtiter plate resulting in assay concentrations of 20 micromolar Ca^2 (Extramitochondrial Ca^2+ bound to the calcium indicator dye was monitored throughout and profiles of each assay; the results are presented in FIG. 12, with all thapsigargin minus (thaps−) assays in wells corresponding to columns 1-6 and thapsigargin plus (thaps+) assays in wells corresponding to columns 7-12.

Row | SMILES | release of sequestered Ca^2+ from mitochondria after addition of the agent (Ca^2+ uniporter [1]) | mitochondrial uptake of the second Ca^2+ pulse (Ca^2+ uniporter [1]) | Ca^2+-5N fluorescence after the second Ca^2+ pulse, presence of succinate (Ca^2+ uniporter [2]) | signal corresponding to extramitochondrial calcium after each Ca^2+ pulse (Ca^2+ uniporter [2]) | Ca^2+-5N fluorescence after the second Ca^2+ pulse, absence of succinate (Ca^2+ uniporter [2]) | mitochondrial sequestration of added Ca^2+ (calcium uniporter (CaUP)) | uniporter activity profile after the 20 micromolar Ca^2+ pulse (Ca^2+ uniporter [3])
1 | CC[C@H]1/C=C/C=C/C[C@@H](C)[C@H](O)[C@@](C)(O)C(=O)[C@@H](C)[C@H](O)[C@@H](C)C(=O)[C@@H](C)[C@H](O)[C@@H](C)/C=C/C(=O)O[C@@H]2[C@H](C)[C@H](CC1)O[C@]1(CC[C@H](C)[C@H](C[C@@H](C)O)O1)[C@H]2C [oligomycin] | caused the release of Ca^2+ from mitochondria into the cytosol | could not sequester the added Ca^2+ | reduction of Ca^2+-5N fluorescence after the second Ca^2+ pulse | remained high | elevated levels of Ca^2+-5N fluorescence after the second Ca^2+ pulse | Ca^2+ is not sequestered in the mitochondria | –
2 | C=C(C)[C@H]1Cc2c(ccc3c2O[C@@H]2COc4cc(OC)c(OC)cc4[C@@H]2C3=O)O1 [rotenone] | caused the release of Ca^2+ from mitochondria into the cytosol | could not sequester the added Ca^2+ | reduction of Ca^2+-5N fluorescence after the second Ca^2+ pulse | remained high | elevated levels of Ca^2+-5N fluorescence after the second Ca^2+ pulse | Ca^2+ is not sequestered in the mitochondria | Ca^2+ can no longer be sequestered by the mitochondria
